From US20240051985A1, “METTL3 MODULATORS” (ACCENT THERAPEUTICS, INC., priority 2020, published 2024)

Tests used:
FLT3 = biological target: T1, FLT3 (Homo sapiens, UniProt P36888); experiment: FLT3 LanthaScreen assay; type: biochemical; conditions: Table 4
T1 sequence (P36888 27-993): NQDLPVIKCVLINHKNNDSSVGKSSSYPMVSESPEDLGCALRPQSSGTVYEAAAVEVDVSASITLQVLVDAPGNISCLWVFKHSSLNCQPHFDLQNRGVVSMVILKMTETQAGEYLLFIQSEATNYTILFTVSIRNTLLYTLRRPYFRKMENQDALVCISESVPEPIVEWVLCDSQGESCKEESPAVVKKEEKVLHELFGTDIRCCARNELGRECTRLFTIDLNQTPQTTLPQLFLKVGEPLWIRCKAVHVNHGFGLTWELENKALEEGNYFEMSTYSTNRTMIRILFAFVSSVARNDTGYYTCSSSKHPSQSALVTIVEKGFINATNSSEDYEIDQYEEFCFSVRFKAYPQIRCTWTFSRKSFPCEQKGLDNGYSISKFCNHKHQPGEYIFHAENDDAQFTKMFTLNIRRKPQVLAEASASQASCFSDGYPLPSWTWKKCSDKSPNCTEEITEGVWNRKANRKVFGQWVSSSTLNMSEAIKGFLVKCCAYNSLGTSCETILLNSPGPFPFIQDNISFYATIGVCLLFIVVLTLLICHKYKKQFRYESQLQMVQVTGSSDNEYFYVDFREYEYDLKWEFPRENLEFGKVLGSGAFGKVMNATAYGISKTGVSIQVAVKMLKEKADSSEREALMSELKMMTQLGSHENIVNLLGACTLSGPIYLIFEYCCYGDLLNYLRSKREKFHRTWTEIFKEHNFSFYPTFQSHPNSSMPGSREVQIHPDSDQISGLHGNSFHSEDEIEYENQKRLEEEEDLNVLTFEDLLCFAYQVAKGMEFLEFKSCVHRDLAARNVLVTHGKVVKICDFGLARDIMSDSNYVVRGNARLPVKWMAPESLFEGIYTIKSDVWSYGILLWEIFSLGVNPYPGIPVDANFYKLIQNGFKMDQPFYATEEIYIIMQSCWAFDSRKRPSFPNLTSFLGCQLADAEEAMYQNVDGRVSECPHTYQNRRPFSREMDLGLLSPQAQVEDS
Protocol: (§1) FLT3/FLT3-ITD LanthaScreen Assays
(§2) Assays were performed in a 10 μl-volume in 384-well polypropylene microplates (Perkin Elmer Proxiplate, cat. No. 6059480) at ambient temperature. Optimized 1× assay buffer was 50 mM Hepes pH 7.5, 2 mM DTT, 0.01% Tween, 0.01% BSA, 10 mM MgCl2. For compound screening FLT3 (final concentration, f.c.=[…]) or FLT3-ITD (f.c.=[…]) was added using a Multidrop Combi (ThermoFisher Scientific, Waltham, MA) and preincubated for 10 min. Reactions were started by adding fluorescein-poly GT (f.c.=200 nM) and ATP (f.c.=57 μM) substrates. Reactions proceeded for 40 minutes. The reactions were stopped with a detection mixture of EDTA (f.c.=20 mM) and terbium-conjugated anti-phoso tyrosine antibody pY20 (f.c.=2 nM). The plates were sealed and read on an Envision (PerkinElmer, Waltham, MA) using 340 nm excitation and emission reads at 495 and 520 nM.

FLT3-ITD = biological target: T2, FLT3-ITD (Homo sapiens, UniProt P36888); experiment: FLT3-ITD LanthaScreen assay; type: biochemical; conditions: Table 4
T2 sequence (P36888 1-993): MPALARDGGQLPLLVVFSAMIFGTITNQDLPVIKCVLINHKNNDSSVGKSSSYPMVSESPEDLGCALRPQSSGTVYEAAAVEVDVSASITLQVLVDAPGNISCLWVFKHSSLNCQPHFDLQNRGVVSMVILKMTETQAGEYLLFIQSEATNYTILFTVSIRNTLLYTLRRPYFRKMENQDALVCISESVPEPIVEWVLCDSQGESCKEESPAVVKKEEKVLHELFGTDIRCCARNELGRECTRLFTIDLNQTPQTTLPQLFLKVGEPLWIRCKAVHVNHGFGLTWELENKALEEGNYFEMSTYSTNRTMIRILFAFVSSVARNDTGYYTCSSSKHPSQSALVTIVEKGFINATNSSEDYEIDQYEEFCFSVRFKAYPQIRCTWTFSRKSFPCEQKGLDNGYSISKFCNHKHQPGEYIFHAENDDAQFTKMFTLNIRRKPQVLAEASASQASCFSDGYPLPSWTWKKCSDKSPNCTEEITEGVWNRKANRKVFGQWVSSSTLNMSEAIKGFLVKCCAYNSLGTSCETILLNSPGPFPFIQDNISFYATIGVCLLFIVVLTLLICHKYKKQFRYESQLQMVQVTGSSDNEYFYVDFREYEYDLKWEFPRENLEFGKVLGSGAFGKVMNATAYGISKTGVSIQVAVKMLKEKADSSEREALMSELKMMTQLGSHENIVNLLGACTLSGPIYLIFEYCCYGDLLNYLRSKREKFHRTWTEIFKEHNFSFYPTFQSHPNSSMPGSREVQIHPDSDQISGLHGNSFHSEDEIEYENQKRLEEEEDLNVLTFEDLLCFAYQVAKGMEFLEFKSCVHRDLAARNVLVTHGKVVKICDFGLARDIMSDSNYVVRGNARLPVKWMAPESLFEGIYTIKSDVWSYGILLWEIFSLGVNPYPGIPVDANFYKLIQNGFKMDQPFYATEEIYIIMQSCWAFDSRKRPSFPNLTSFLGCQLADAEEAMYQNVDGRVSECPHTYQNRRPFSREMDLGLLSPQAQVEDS
Protocol: as §1, §2

PRMT5-MEP50 = PRMT5-MEP50 (Homo sapiens, UniProt O14744); experiment: PRMT5 assay (3H-SAM flashplate); conditions: PRMT5 biochemical assay
Sequence of PRMT5-MEP50 (O14744 whole entry): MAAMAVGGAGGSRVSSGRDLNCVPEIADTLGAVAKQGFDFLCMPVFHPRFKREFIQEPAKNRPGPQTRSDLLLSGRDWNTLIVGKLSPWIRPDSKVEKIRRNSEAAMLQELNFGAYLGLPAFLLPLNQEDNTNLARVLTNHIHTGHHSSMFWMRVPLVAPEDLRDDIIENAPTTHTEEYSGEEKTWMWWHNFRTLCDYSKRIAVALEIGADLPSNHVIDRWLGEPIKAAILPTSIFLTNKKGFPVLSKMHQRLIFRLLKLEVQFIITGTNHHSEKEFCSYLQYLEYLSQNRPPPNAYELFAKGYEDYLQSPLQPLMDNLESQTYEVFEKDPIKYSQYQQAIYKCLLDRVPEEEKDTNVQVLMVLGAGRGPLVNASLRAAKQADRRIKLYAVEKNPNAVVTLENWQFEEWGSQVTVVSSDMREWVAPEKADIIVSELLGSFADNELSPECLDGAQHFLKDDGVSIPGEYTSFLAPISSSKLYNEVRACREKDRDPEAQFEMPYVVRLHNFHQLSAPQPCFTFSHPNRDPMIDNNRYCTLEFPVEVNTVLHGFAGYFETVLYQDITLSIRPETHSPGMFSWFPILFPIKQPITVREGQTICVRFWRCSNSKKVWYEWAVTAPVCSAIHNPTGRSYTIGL
Sequence of PRMT5-MEP50 (Q9BQA1 whole entry partner): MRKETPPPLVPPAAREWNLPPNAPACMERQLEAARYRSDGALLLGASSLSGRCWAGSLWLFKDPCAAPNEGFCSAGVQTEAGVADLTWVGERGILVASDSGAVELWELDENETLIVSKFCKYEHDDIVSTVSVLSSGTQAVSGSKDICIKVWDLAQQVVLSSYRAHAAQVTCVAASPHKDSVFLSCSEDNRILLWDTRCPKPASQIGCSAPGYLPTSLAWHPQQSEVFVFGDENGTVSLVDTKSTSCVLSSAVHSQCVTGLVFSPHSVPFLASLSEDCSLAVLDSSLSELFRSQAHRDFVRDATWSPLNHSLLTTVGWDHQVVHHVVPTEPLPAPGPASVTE
How it was run: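 Radiometric methyl-transfer read-out: 3H-methyl transferred to a 3′-biotinylated, acetylated H4 peptide substrate (100 nM) from 3H-SAM (250 nM), captured on streptavidin scintillation plates. Enzyme complex 2.5 nM, pH 8.0 Tris buffer with DTT and Tween, compound preincubation 5 min, 60 min reaction stopped with excess unlabeled SAM.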

METTL3/METTL14 = METTL3/METTL14 (Homo sapiens, UniProt Q86U44); experiment: METTL3-14 standard enzyme assay (3H-SAM flashplate); conditions: METTL3 biochemical assay
Sequence of METTL3/METTL14 (Q86U44 whole entry, species assumed): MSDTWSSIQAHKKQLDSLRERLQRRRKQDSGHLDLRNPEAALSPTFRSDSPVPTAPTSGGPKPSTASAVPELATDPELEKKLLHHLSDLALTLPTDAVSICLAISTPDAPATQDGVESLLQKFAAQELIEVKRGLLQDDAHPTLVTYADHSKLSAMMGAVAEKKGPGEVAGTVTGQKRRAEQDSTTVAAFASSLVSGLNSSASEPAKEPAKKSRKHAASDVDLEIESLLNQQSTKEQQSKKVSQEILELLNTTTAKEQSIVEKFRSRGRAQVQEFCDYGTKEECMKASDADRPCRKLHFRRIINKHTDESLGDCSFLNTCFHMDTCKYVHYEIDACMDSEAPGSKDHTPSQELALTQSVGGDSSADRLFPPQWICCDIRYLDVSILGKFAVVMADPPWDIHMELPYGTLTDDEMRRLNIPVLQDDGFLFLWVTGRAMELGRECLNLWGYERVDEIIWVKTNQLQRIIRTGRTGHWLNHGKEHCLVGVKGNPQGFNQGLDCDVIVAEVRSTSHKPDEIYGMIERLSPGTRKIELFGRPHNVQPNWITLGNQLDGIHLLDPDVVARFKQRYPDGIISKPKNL
Sequence of METTL3/METTL14 (Q9HCE5 whole entry partner, species assumed): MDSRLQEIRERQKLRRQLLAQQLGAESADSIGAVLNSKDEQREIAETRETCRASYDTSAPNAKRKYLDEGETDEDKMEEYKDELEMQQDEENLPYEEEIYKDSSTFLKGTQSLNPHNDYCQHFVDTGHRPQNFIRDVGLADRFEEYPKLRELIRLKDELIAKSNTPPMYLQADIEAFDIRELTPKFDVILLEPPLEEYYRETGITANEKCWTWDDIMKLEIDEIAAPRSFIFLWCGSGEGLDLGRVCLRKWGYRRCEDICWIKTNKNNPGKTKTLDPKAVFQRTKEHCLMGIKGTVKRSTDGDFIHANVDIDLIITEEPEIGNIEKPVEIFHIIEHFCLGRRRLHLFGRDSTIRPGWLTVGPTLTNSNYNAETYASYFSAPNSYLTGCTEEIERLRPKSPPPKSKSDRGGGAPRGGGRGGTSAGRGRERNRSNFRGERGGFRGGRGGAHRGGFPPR
How it was run: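 Radiometric methyltransferase read-out: after quenching with excess unlabelled SAM (15 μM), biotinylated RNA was captured on streptavidin flashplates (2 h, 25° C) and counted. Reactions contained 2.5 nM enzyme (5 min preincubation), 100 nM RNA and 100 nM 3H-SAM, ran 30 min in HEPES pH 7.5 buffer with KCl, MgCl2, DTT.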

| SMILES | IC50 (FLT3) [nM] | IC50 (FLT3-ITD) [nM] | IC50 (PRMT5-MEP50; Table 4) [nM] | IC50 (METTL3/METTL14; Table 4) [nM] | IC50 (PRMT5-MEP50; Table 3) [nM] | IC50 (METTL3/METTL14; Table 3) [nM] |
| --- | --- | --- | --- | --- | --- | --- |
| COCCn1ccc(-c2cn([C@@H]3O[C@H](C(=O)NC4CCN(C)CC4)[C@@H](O)[C@H]3O)c3ncnc(N)c23)n1 [Compound I-57, (2S,3S,4R,5R)-5-(4-amino-5-(1-(2-methoxyethyl)-1H-pyrazol-3-yl)-7H-pyrrolo[2,3-d]pyrimidin-7-yl)-3,4-dihydroxy-N-(1-methylpiperidin-4-yl)tetrahydrofuran-2-carboxamide] | ≥ 1000 | ≥ 1000 | 100 to 1000 | 100 to 1000 |  |  |
| CNc1ccc2ccc(NC(=O)[C@H]3O[C@@H](n4cc(-c5ccn(C)n5)c5c(N)ncnc54)[C@@H](F)[C@@H]3O)cc2n1 [Compound I-61] | 100 to 1000 | 100 to 1000 | 10 to 100 | < 10 |  |  |
| CNc1ccc2ccc(NC(=O)[C@H]3O[C@@H](n4ccc5c(N)ncnc54)[C@@H](F)[C@@H]3O)cc2n1 [Compound I-62] | ≥ 1000 | ≥ 1000 | < 10 | 100 to 1000 |  |  |
| CN1CCC(N(CC[C@H](N)C(=O)O)C(=O)[C@H]2O[C@@H](n3cc(-c4ccn(C)n4)c4c(N)ncnc43)[C@H](O)[C@@H]2O)CC1 [Compound I-31, (S)-2-amino-4-((2S,3S,4R,5R)-5-(4-amino-5-(1-methyl-1H-pyrazol-3-yl)-7H-pyrrolo[2,3-d]pyrimidin-7-yl)-3,4-dihydroxy-N-(1-methylpiperidin-4-yl)tetrahydrofuran-2-carboxamido)butanoic acid] | ≥ 1000 | ≥ 1000 |  |  | < 10 | < 10 |
| CN1[C@@H]2CC[C@H]1C[C@H](NC(=O)[C@H]1O[C@@H](n3cc(-c4ccn(C)n4)c4c(N)ncnc43)[C@H](O)[C@@H]1O)C2 [Compound I-205] | ≥ 1000 | ≥ 1000 | 100 to 1000 | 100 to 1000 |  |  |
| CNc1ccc2ccc(NC(=O)[C@H]3O[C@@H](n4cc(-c5ccn(C)n5)c5c(N)ncnc54)C[C@@H]3O)cc2n1 [Compound I-35] | ≥ 1000 | ≥ 1000 | 10 to 100 | < 10 |  |  |
| Cn1ccc(-c2cn([C@@H]3O[C@H](C(N)=O)[C@@H](O)[C@H]3O)c3ncnc(N)c23)n1 [Compound I-54] | ≥ 1000 | ≥ 1000 | 100 to 1000 | ≥ 1000 |  |  |
| Cn1ccc(-c2cn([C@@H]3O[C@H](C(=O)NCC[C@H](N)C(=O)O)[C@@H](O)[C@H]3O)c3ncnc(N)c23)n1 [Compound I-43] | ≥ 1000 | ≥ 1000 | ≥ 1000 | 100 to 1000 |  |  |
| CN1CCC(N(CCC#N)C(=O)[C@H]2O[C@@H](n3cc(-c4ccn(C)n4)c4c(N)ncnc43)[C@H](O)[C@@H]2O)CC1 [Compound I-144] | ≥ 1000 | ≥ 1000 | 10 to 100 | 100 to 1000 |  |  |

The remaining lines, values ahead:

| IC50 (FLT3) [nM] | IC50 (FLT3-ITD) [nM] | IC50 (PRMT5-MEP50; Table 4) [nM] | IC50 (METTL3/METTL14; Table 4) [nM] | IC50 (PRMT5-MEP50; Table 3) [nM] | IC50 (METTL3/METTL14; Table 3) [nM] | SMILES |
| --- | --- | --- | --- | --- | --- | --- |
| ≥ 1000 | ≥ 1000 | ≥ 1000 | ≥ 1000 |  |  | Cn1ccc(-c2cn([C@@H]3O[C@H](C(=O)NC[C@H]4CC[C@H](O)CC4)[C@@H](O)[C@H]3O)c3ncnc(N)c23)n1 [Compound I-159] |
| ≥ 1000 | ≥ 1000 | 10 to 100 | 10 to 100 |  |  | CN1CCC(N(CCCN)C(=O)[C@H]2O[C@@H](n3cc(-c4ccn(C)n4)c4c(N)ncnc43)[C@H](O)[C@@H]2O)CC1 [Compound I-146] |
| ≥ 1000 | ≥ 1000 | 100 to 1000 | 100 to 1000 |  |  | Cn1ccc(-c2cn([C@@H]3O[C@H](C(=O)NC4CCc5cnc(N)nc5C4)[C@@H](O)[C@H]3O)c3ncnc(N)c23)n1 (some centres unmarked) [Compound I-188] |
| ≥ 1000 | ≥ 1000 | ≥ 1000 | ≥ 1000 |  |  | Cn1ccc(-c2cn([C@@H]3O[C@H](C(=O)N4CCC[C@@H](C(N)=O)C4)[C@@H](O)[C@H]3O)c3ncnc(N)c23)n1 [Compound I-174] |
| ≥ 1000 | ≥ 1000 | 10 to 100 | ≥ 1000 |  |  | CC(O)CCN(C(=O)[C@H]1O[C@@H](n2cc(-c3ccn(C)n3)c3c(N)ncnc32)[C@H](O)[C@@H]1O)C1CCN(C)CC1 (some centres unmarked) [Compound I-148] |
| ≥ 1000 | ≥ 1000 | 100 to 1000 | 100 to 1000 |  |  | CC1CC(NC(=O)[C@H]2O[C@@H](n3cc(-c4ccn(C)n4)c4c(N)ncnc43)[C@H](O)[C@@H]2O)CCN1 (stereo in doubt) [Compound I-211] |
| ≥ 1000 | ≥ 1000 | 100 to 1000 | 100 to 1000 |  |  | C[C@H](NC(=O)[C@H]1O[C@@H](n2cc(-c3ccn(C)n3)c3c(N)ncnc32)[C@H](O)[C@@H]1O)C1CCNCC1 [Compound I-195] |
| ≥ 1000 | ≥ 1000 | < 10 | 100 to 1000 |  |  | Cn1ccc(-c2cn([C@@H]3O[C@H](C(=O)N[C@@H]4CCCNC4)[C@@H](O)[C@H]3O)c3ncnc(N)c23)n1 [Compound I-220] |
| ≥ 1000 | ≥ 1000 | 10 to 100 | 100 to 1000 |  |  | CN1CC[C@H](NC(=O)[C@H]2O[C@@H](n3cc(-c4ccn(C)n4)c4c(N)ncnc43)[C@H](O)[C@@H]2O)C1 [Compound I-203] |
| ≥ 1000 | ≥ 1000 | 10 to 100 | 100 to 1000 |  |  | Cn1ccc(-c2cn([C@@H]3O[C@H](C(=O)NC4CCNC(C)(C)C4)[C@@H](O)[C@H]3O)c3ncnc(N)c23)n1 (some centres unmarked) [Compound I-189] |
| ≥ 1000 | ≥ 1000 | ≥ 1000 | ≥ 1000 |  |  | CN1CCC(NC(=O)[C@H]2O[C@@H](n3cc(-c4ccn(C)n4)c4c(N)ncnc43)[C@H](O)[C@@H]2O)CC1=O (some centres unmarked) [Compound I-186] |
